US5364848A, “Substituted cephalosporin sulfones as anti-inflammatory and antidegenerative agents” (Merck & Co., Inc., priority 1992, dated 1994)
Values after ≈ are worked out from the molar mass of the structure shown.

These molecules were tested against T1, Human Polymorphonuclear Leukocyte Elastase (Homo sapiens, UniProt P08246) (assay: biochemical). Conditions: not given.
T1 sequence (P08246 30-247 limits assumed): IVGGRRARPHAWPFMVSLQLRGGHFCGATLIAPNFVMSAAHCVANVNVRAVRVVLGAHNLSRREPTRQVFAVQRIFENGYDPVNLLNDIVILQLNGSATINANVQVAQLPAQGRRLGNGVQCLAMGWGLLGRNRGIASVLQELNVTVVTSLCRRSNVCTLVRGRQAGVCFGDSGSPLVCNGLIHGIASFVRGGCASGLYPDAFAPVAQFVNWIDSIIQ
Procedure: Protocol--Enzyme Assays for the Inhibition of Human Polymorphonuclear Leukocyte Elastase Via Hydrolysis of N-t-Boc-alanyl-alanyl-prolylalanine-p-nitroanilide Reagents:
0.05M TES (N-tris[hydroxymethyl]methyl-2-amino-ethanesulfonic acid) Buffer, pH 7.5.
0.2 mMN-t-Boc-alanyl -alanyl -prolyl-alanine-p-nitroanilide (Boc-AAPAN).
To prepare substrate, the solid (m.w. 550) was first dissolved in 10.0 ml DMSO. Buffer at pH 7.5 was then added to a final volume of 100 ml.
Crude extract of human polymorphonuclear leukocytes (PMN) containing elastase activity.
Inhibitors (cephalosporin sulfone esters) to be tested dissolved in DMSO just before use.
To 1.0 ml of 0.2 mM Boc-AAPAN in a cuvette, 0.01-0.1 ml of DMSO with or without inhibitor was added. After mixing, a measurement was taken at 410 mμ to detect any spontaneous hydrolysis due to presence of test compound. 0.05 Milliliters of PMN extract was then added and the ΔOD/min at 410 mμ was measured and recorded. Beckman model 35 spectrophotometer was used.
The elastase activity in the crude PMN extract may vary from one preparation to another. A control of each new batch is run, and the volume added in the assay procedure is adjusted according to activity.

| Compound | IC50 [nM] |
| --- | --- |
| CO[C@H]1C(=O)N2C(C(=O)OC(C)(C)C)=C(CS(=O)(=O)c3ccccc3)CS(=O)(=O)C12 (single isomer, unassigned) [R1=OCH3, M=CH2SO2.phi., B=OtBu, Q=H, t-Butyl 3-phenylsulfonylmethyl-7α-methoxy-8-oxo-5-thia-1-azabicyclo[4.2.0]oct-2-ene-2-carboxylate-5,5-dioxide] | 437 |
| CO[C@H]1C(=O)N2C(C(=O)OC(C)(C)C)=C(C[S+]([O-])c3ccccc3)CS(=O)(=O)C12 (single isomer, unassigned) [R1=OCH3, M=CH2SO.phi., B=OtBu, Q=H, t-Butyl 3-phenylsulfinylmethyl-7α-methoxy-8-oxo-5-thia-1-azabicyclo[4.2.0]oct-2-ene-2-carboxylate-5,5-dioxide] | 181 |
| CC(=O)OCC1=C(C(=O)OC(C)(C)C)N2C(=O)[C@H](Cl)[C@H]2S(=O)(=O)C1 [R1=Cl, M=CH2OCOCH3, B=OtBu, Q=H, t-Butyl 3-acetyloxymethyl-7α-chloro-8-oxo-5-thia-1-azabicyclo[4.2.0]oct-2-ene-2-carboxylate-5.5-dioxide] | 52.7 |
| CC(=O)OCC1=C(C(=O)OC(C)(C)C)N2C(=O)[C@H](F)[C@H]2S(=O)(=O)C1 [R1=F, M=CH2OCOCH3, B=OtBu, Q=H, t-Butyl 3-acetyloxymethyl-7α-fluoro-8-oxo-5-thia-1-azabicyclo[4.2.0]oct-2-ene-2-carboxylate-5,5-dioxide] | 82.6 |
| CC(=O)OCC1=C(C(=O)OC(C)(C)C)N2C(=O)C(Oc3ccccc3)C2S(=O)(=O)C1 (centres unmarked) [R1=OC6H5, M=CH2OCOCH3, B=OtBu, Q=H] | 1830 |
| COCC1=C(C(=O)OC(C)(C)C)N2C(=O)[C@H](OC)C2S(=O)(=O)C1 (some centres unmarked) [R1=OCH3, M=CH2OCH3, B=OtBu, Q=H] | 864 |
| CO[C@H]1C(=O)N2C(C(=O)OCc3ccccc3)=C(COC(C)=O)CS(=O)(=O)[C@H]12 [R1=OCH3, M=CH2OCOCH3, B=OCH2.phi., Q=H, Benzyl 3-acetyloxymethyl-7α-methoxy-8-oxo-5-thia-1-azabicyclo[4.2.0]oct-2-ene-2-carboxylate-5,5-dioxide] | 73.3 |
| COC(=O)C1=C(COC(C)=O)CS(=O)(=O)C2C(OC)C(=O)N12 (centres unmarked) [R1=OCH3, M=CH2OCOCH3, B=OCH3, Q=H] | 240 |

Same assay, conditions: Table II; 50% inhibition of the enzyme activity 2 minutes after zero time; crude PMN extract, pH 7.5, 0.2 mM Boc-AAPAN

| Compound | ED50 [µg/mL] |
| --- | --- |
| CO[C@H]1C(=O)N2C(C(=O)OC(C)(C)C)=C(CCl)CS(=O)(=O)C12 (stereo partly drawn) [R1=OCH3, M=CH2Cl, B=OtBu, Q=H, t-Butyl 3-chloromethyl-7α-methoxy-8-oxo-5-thia-1-azabicyclo[4.2.0]oct-2-ene-2-carboxylate-5,5-dioxide] | 0.15 (≈ 0.426 µM) |
| CO[C@H]1C(=O)N2C(C(=O)OC(C)(C)C)=C(CSc3ccccc3)CS(=O)(=O)C12 (stereo partly drawn) [R1=OCH3, M=CH2S.phi., B=OtBu, Q=H, t-Butyl 3-phenylthiomethyl-7α-methoxy-8-oxo-5-thia-1-azabicyclo[4.2.0]oct-2-ene-2-carboxylate-5,5-dioxide] | 0.4 (≈ 0.94 µM) |
| CO[C@H]1C(=O)N2C(C(=O)OC(C)(C)C)=C(C)CS(=O)(=O)C12 (stereo partly drawn) [R1=OCH3, M=CH3, B=OtBu, Q=H, t-Butyl 3-methyl-7α-methoxy-8-oxo-5-thia-1-azabicyclo [4.2.0]oct-2-ene-2-carboxylate-5,5-dioxide] | 1.0 (≈ 3.15 µM) |

Same assay, conditions: Table II; 50% inhibition of the enzyme activity 2 minutes after zero time; crude PMN extract, pH 7.5, 0.2 mM Boc-AAPAN; read-out: ED50 (the source's name) (converted)

| IC50 [nM] | Compound |
| --- | --- |
| 1250 | COC1C(=O)N2C(C(=O)OC(C)(C)C)=C(COC(=O)c3ccccc3C(=O)O)CS(=O)(=O)C12 (centres unmarked) |
| 37.8 | COC1C(=O)N2C(C(=O)OC(C)(C)C)=C(COC(C)=O)C(CS(=O)(=O)c3ccccc3)S(=O)(=O)C12 (centres unmarked) |
| 861 | CCC1C(=O)N2C(C(=O)OC(C)(C)C)=C(COC(=O)C(N)c3ccccc3)CS(=O)(=O)C12 (centres unmarked) [R1=C2H5, M=drawing 32, B=OtBu, Q=H] |
| 742 | CNCC(=O)OCC1=C(C(=O)OC(C)(C)C)N2C(=O)C(OC)C2S(=O)(=O)C1 (centres unmarked) [R1=OCH3, M=CH2OCOCH2NHCH3, B=OtBu, Q=H] |
| 77.4 | C=C1C(COC(C)=O)=C(C(=O)OC(C)(C)C)N2C(=O)[C@H](OC)[C@H]2S1(=O)=O [R1=OCH3, M=CH2OCOCH3, B=OtBu, Q=CH2, t-Butyl 3-acetyloxymethyl-7α-methoxy-4-methylene-8-oxo-5-thia-1-azabicyclo [4.2.0]oct-2-ene-2-carboxylate-5,5-dioxide] |
| 32200 | COC1C(=O)N2C(C(=O)OC(C)(C)C)=C(COC(C)=O)C(Cc3ccccc3)S(=O)(=O)C12 (centres unmarked) [R1=OCH3, M=CH2OCOCH3, B=OtBu, Q=CH2.phi.] |
| 77 | CO[C@H]1C(=O)N2C(C(=O)OC(C)(C)C)=C(COC(C)=O)C(C)S(=O)(=O)[C@H]12 (some centres unmarked) [R1=OCH3, M=CH2OCOCH3, B=OtBu, Q=CH3] |
| 1330 | CO[C@H]1C(=O)N2C(C(=O)OC(C)(C)C)=C(COC(C)=O)CS(=O)(=O)[C@H]12 [R1=OCH3, M=CH2OCOCH3, B=OtBu, Q=H, t-Butyl-3-acetyloxymethyl-7α-methoxy-8-oxo-5-thia-1-azabicyclo[4.2.0]oct-2-ene-2-carboxylate-5,5-dioxide] |
| 92.1 | CO[C@H]1C(=O)N2C(C(=O)OC(C)(C)C)=C(COC(=O)NCC(=O)O)CS(=O)(=O)C12 (stereo partly drawn) [R1=OCH3, M=CH2OCONHCH2COOH, B=OtBu, Q=H, t-Butyl 3-hydroxycarbonylmethylaminocarbonyloxymethyl-7α-methoxy-8-oxo-5-thia-1-azabicyclo[4.2.0]oct-2-ene-2-carboxylate-5,5-dioxide] |
| 740 | CCOC(=O)OCC1=C(C(=O)OC(C)(C)C)N2C(=O)C(OC)C2S(=O)(=O)C1 (centres unmarked) [R1=OCH3, M=CH2OCOOC2H5, B=OtBu, Q=H] |
| 253 | COC1C(=O)N2C(C(=O)OC(C)(C)C)=C(CS(C)(=O)=O)CS(=O)(=O)C12 (centres unmarked) [R1=OCH3, M=CH2SO2CH3, B=OtBu, Q=H] |

More lines, now with the values behind:

| Compound | IC50 [nM] |
| --- | --- |
| COC1C(=O)N2C(C(=O)OCC=C(C)C)=C(COC(C)=O)CS(=O)(=O)C12 (centres unmarked) | 2580 |
| COC(=O)c1cccc(COC(=O)C2=C(C)CS(=O)(=O)C3C(OC)C(=O)N23)c1 (centres unmarked) | 733 |
| CCC1C(=O)N2C(C(=O)OC(C)(C)C)=C(COC(=O)CCC(=O)O)CS(=O)(=O)C12 (centres unmarked) [R1=C2H5, M=CH2OCOCH2CH2COOH, B=OtBu, Q=H] | 1850 |
| CCC1C(=O)N2C(C(=O)OCc3ccccc3)=C(COC(C)=O)CS(=O)(=O)C12 (centres unmarked) [R1=C2H5, M=CH2OCOCH3, B=OCH2.phi., Q=H] | 982 |
| CCC1C(=O)N2C(C(=O)OC(C)(C)C)=C(COC(=O)NC(C)C(=O)O)CS(=O)(=O)C12 (centres unmarked) [R1=C2H5, M=drawing 31, B=OtBu, Q=H] | 2240 |
| CO[C@H]1C(=O)N2C(C(=O)OC(C)(C)C)=C(COC(=O)CCC(=O)O)CS(=O)(=O)C12 (stereo partly drawn) [R1=OCH3, M=CH2OCOCH2CH2COOH, B=OtBu, Q=H, t-Butyl 3-(3-[hydroxycarbonyl]Propanoyloxymethyl)-7α-methoxy-8-oxo-5-thia-1-azabicyclo[4.2.0]oct-2-ene-2-carboxylate-5,5-dioxide] | 231 |
| COC1C(=O)N2C(C(=O)N(C)C)=C(COC(C)=O)CS(=O)(=O)C12 (centres unmarked) [R1=OCH3, M=CH2OCOCH3, B=N(CH3)2, Q=H] | 1730 |
| CO[C@H]1C(=O)N2C(C(=O)NCC(=O)OC(C)(C)C)=C(COC(C)=O)CS(=O)(=O)[C@H]12 [R1=OCH3, M=CH2OCOCH3, B=NHCH2COOtBu, Q=H, N-(t-Butoxycarbonyl)methyl 3-acetyloxymethyl-7α-methoxy-8-oxo-5-thia-1-azabicyclo[4.2.0]oct-2-ene-2-carboxamide-5,5 dioxide] | 2080 |
| COC1C(=O)N2C(C(=O)OCC(=O)C(C)(C)C)=C(COC(C)=O)CS(=O)(=O)C12 (centres unmarked) [R1=OCH3, M=CH2OCOCH3, B=OCH2COtBu, Q=H] | 47.9 |
| COC1C(=O)N2C(C(=O)N3CCC[C@H]3C(=O)O)=C(COC(C)=O)CS(=O)(=O)C12 (some centres unmarked) [R1=OCH3, M=CH2OCOCH3, B=drawing 33, Q=H] | 12000 |
| COC1C(=O)N2C(C(=O)OC(C)(C)C)=C(CO)CS(=O)(=O)C12 (centres unmarked) [R1=OCH3, M=CH2OH, B=OtBu, Q=H] | 2400 |
| CCOC(=O)COC(=O)C1=C(C)CS(=O)(=O)C2C(OC)C(=O)N12 (centres unmarked) [R1=OCH3, M=CH3, B=OCH2COOC2H5, Q=H] | 1440 |
| CO[C@H]1C(=O)N2C(C(=O)OC(C)(C)C)=C(C(=O)O)CS(=O)(=O)C12 (stereo partly drawn) [R1=OCH3, M=COOH, B=OtBu, Q=H, t-Butyl 3-hydroxycarbonyl-7α-methoxy-8-oxo-5-thia-1-azabicyclo[4.2.0]oct-2-ene-2-carboxylate-5,5 dioxide] | 28.8 |
| COC(=O)C1=C(Cl)CS(=O)(=O)C2[C@@H](OC)C(=O)N12 (stereo partly drawn) [R1=OCH3, M=Cl, B=OCH3, Q=H, Methyl-3-chloro-7α-methoxy-8-oxo-5-thia-1-azabicyclo[4.2.0]oct-2-ene-2-carboxylate-5,5-dioxide] | 676 |

Same assay, conditions: Table IIa; 50% inhibition of the enzyme activity 2 minutes after zero time; crude PMN extract, pH 7.5, 0.2 mM Boc-AAPAN; read-out: ED50 (the source's name) (converted)

| IC50 [nM] | Compound |
| --- | --- |
| 241 | CC(=O)OCC1=C(C(=O)OC(C)(C)C)N2C(=O)C(Cl)(Cl)C2S(=O)(=O)C1 (centres unmarked) |
| 131 | CC(=O)OCC1=C(C(=O)OC(C)(C)C)N2C(=O)C(F)(F)C2S(=O)(=O)C1 (centres unmarked) |
